Like-named read-outs stand apart in the source and are kept apart here.
Legend:
Factor XIa = Factor XIa (Homo sapiens (Human), UniProt P03951); assay: Factor XIa inhibition assay (FLINT) utilizing a fluorophore-quencher pair peptide substrate; type: biochemical; conditions: 30 min preincubation, kinetic reads over 30 min, read-out: FXIa Kin Inh IC50
Method in brief: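 FXIa ([…]) preincubated 30 min with compound (11-point 3-fold dilution, top 100 nM, 2% DMSO), then 15 μM quenched FXI Arg146-based peptide added; Tris pH 7.5, CaCl2, BSA, CHAPS. Fluorescence 485/520 nm read kinetically every 5 min over 30 min at RT; IC50 by 4-parameter fit.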

human plasma kallikrein = human plasma kallikrein (Homo sapiens (Human), UniProt P03952); assay: Kallikrein inhibition assay (FLINT) utilizing a quenched AMC peptide substrate; type: biochemical; conditions: 30 min preincubation, kinetic reads over 30 min, Z-Gly-Pro-Arg-AMC substrate 50 μM; read-out: Kallikrein Kin Inh IC50
Chain of human plasma kallikrein (P03952 391-638): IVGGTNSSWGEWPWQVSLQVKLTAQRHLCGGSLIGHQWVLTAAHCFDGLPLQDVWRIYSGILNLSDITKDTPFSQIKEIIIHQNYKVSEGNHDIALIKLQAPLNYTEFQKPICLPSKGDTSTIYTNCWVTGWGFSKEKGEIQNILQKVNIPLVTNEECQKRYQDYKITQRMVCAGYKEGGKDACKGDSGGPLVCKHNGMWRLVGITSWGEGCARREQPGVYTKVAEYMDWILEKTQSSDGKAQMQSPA
Chain of human plasma kallikrein (P03952 20-390 partner): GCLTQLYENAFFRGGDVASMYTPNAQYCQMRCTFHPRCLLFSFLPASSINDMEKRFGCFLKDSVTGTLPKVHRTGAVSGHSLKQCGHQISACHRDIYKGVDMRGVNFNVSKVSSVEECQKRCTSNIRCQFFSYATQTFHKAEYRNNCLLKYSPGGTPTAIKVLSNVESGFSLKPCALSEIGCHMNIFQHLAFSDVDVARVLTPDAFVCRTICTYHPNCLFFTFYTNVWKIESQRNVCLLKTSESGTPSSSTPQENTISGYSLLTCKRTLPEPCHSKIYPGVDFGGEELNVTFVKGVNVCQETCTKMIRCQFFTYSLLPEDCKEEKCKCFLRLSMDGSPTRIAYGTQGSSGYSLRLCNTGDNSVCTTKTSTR
Method in brief: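 Enzyme (2 nM final) pre-incubated 30 min at room temperature with compound (11-point, 3-fold, top 1 μM, 2% DMSO), then 50 μM Z-Gly-Pro-Arg-AMC added in Tris pH 7.5 buffer. Kinetic fluorescence 340/440 nm every 5 min over 30 min; IC50 from 4-parameter logistic fit.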

[1] = 5Fam-KLTRAETV-K5Tamra substrate 15 μM
[2] = 5Fam-[…]-K5Tamra substrate 15 μM

Chain of Factor XIa (P03951 388-625): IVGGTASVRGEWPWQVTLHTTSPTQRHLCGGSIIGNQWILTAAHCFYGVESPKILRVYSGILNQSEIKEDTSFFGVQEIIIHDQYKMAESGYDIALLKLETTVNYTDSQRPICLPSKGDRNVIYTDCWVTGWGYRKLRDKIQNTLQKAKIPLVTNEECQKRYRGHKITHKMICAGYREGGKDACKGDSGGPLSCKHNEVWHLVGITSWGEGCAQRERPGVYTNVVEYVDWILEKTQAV
Chain of Factor XIa (P03951 19-387 partner): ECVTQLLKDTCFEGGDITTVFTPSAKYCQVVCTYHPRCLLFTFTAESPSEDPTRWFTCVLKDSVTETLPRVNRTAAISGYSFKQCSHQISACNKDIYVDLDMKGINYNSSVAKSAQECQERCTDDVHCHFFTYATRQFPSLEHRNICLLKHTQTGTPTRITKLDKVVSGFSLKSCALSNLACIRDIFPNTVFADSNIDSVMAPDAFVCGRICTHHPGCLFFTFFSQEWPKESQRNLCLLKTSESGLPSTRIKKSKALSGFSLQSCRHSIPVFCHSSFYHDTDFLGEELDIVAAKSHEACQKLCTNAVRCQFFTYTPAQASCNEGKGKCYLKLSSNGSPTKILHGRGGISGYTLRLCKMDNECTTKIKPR

Compound | IC50 (Factor XIa; [1]) | IC50 (human plasma kallikrein) | IC50 (Factor XIa; [2])
O=C(O)c1nccc(-c2cnc([C@@H]3CC[C@@H]4CC(c5c(-n6cc(C(F)(F)F)nn6)ccc(Cl)c5F)=CC(=O)N43)[nH]2)c1F [Example 58, 4-(2-((3S,8aR)-7-(3-chloro-2-fluoro-6-(4-(trifluoromethyl)-1H-1,2,3-triazol-1-yl)phenyl)-5-oxo-1,2,3,5,8,8a-hexahydroindolizin-3-yl)-1H-imidazol-5-yl)-3-fluoropicolinic acid] | 0.7 nM | 49.2 nM | –
CC(C)[C@H](N)C(=O)OCc1nccc(-c2cnc([C@@H]3CC[C@@H]4CC(c5c(-n6cnnn6)ccc(Cl)c5F)=CC(=O)N43)[nH]2)c1F [Example 75, [4-[2-[(3S,8aR)-7-[3-chloro-2-fluoro-6-(tetrazol-1-yl)phenyl]-5-oxo-2,3,8,8a-tetrahydro-1H-indolizin-3-yl]-1H-imidazol-5-yl]-3-fluoro-2-pyridyl]methyl (2S)-2-amino-3-methyl-butanoate] | 4.3 nM | 38.3 nM | –
O=C1C=C(c2c(-n3cnnn3)ccc(Cl)c2F)C[C@H]2CC[C@@H](c3ncc(-c4c[nH]nc4Cl)[nH]3)N12 (single isomer, unassigned) [Example 224] | 0.5 nM | 8 nM | –
CC(=O)NCc1nccc(-c2cnc([C@@H]3CC[C@@H]4CC(c5c(-n6cnnn6)ccc(Cl)c5F)=CC(=O)N43)[nH]2)c1F [Example 13, N-[[4 [2-[(3S,8aR)-7-[3-Chloro-2-fluoro-6-(tetrazol-1-yl)phenyl]-5-oxo-2,3,8,8a-tetrahydro-1H-indolizin-3-yl]-1H-imidazol-5-yl]-3-fluoro-2-pyridyl]methyl]acetamide] | 4.2 nM | 68.6 nM | –
N#CC1CN(c2nccc(-c3cnc([C@@H]4CC[C@@H]5CC(c6c(-n7cnnn7)ccc(Cl)c6F)=CC(=O)N54)[nH]3)c2F)C1 (single isomer, unassigned) [Example 100, 1-(4-(2-((3S*,8aR)-7-(3-chloro-2-fluoro-6-(1H-tetrazol-1-yl)phenyl)-5-oxo-1,2,3,5,8,8a-hexahydroindolizin-3-yl)-1H-imidazol-5-yl)-3-fluoropyridin-2-yl)azetidine-3-carbonitrile] | – | 5.1 nM | 1.9 nM
O=C1C=C(c2c(OC(F)F)ccc(Cl)c2F)C[C@H]2CC[C@@H](c3ncc(-c4ccnc(CO)c4F)[nH]3)N12 [Example 25, (3S,8aR)-7-(3-Chloro-6-(difluoromethoxy)-2-fluorophenyl)-3-(5-(3-fluoro-2-(hydroxymethyl)pyridin-4-yl)-1H-imidazol-2-yl)-2,3,8,8a-tetrahydroindolizin-5(1H)-one] | > 100 nM | 480 nM | –
O=C1C=C(c2c(-n3cnnn3)ccc(Cl)c2F)C[C@@H]2CC[C@@H](c3nc(Cl)c(-c4ccnc([C@H](O)C(F)(F)F)c4)[nH]3)N12 (single isomer, unassigned) [Example 172, (3*S,8a*S)-7-(3-chloro-2-fluoro-6-(1H-tetrazol-1-yl)phenyl)-3-(4-chloro-5-(2-((*S)-2,2,2-trifluoro-1-hydroxyethyl)pyridin-4-yl)-1H-imidazol-2-yl)-2,3,8,8a-tetrahydroindolizin-5(1H)-one] | 3.6 nM | 6.1 nM | –
Nc1ccc(-c2cnc([C@@H]3CC[C@@H]4CC(c5cc(Cl)ccc5-n5cnnn5)=CC(=O)N43)[nH]2)c(F)n1 [Example 123, (3S,8aR)-3-[5-(6-amino-2-fluoro-3-pyridyl)-1H-imidazol-2-yl]-7-[5-chloro-2-(tetrazol-1-yl)phenyl]-2,3,8,8a-tetrahydro-1H-indolizin-5-one] | 0.4 nM | 8.6 nM | –
O=C(O)c1nccc(-c2cnc([C@@H]3CC[C@@H]4CC(c5c(-n6cnnn6)ccc(Cl)c5F)=CC(=O)N43)[nH]2)c1F [Example 182, 4-(2-((3S,8aR)-7-(3-chloro-2-fluoro-6-(1H-tetrazol-1-yl)phenyl)-5-oxo-1,2,3,5,8,8a-hexahydroindolizin-3-yl)-1H-imidazol-5-yl)-3-fluoropicolinic acid] | 0.4 nM | 14.1 nM | –
Nc1ccc(-c2cnc([C@H]3CC[C@@H]4CC(c5cc(Cl)ccc5-n5cnnn5)=CC(=O)N43)[nH]2)c(F)n1 (single isomer, unassigned) [Example 119, (3*R,8aR)-3-(5-(6-amino-2-fluoropyridin-3-yl-5-d)-1H-imidazol-2-yl)-7-(5-chloro-2-(1H-tetrazol-1-yl)phenyl-3-d)-2,3,8,8a-tetrahydroindolizin-5(1H)-one] | 0.6 nM | 11.7 nM | –
CONC(=O)c1nccc(-c2cnc([C@@H]3CC[C@@H]4CC(c5c(-n6cnnn6)ccc(Cl)c5F)=CC(=O)N43)[nH]2)c1F [Example 103, 4-[2-[(3S,8aR)-7-[3-Chloro-2-fluoro-6-(tetrazol-1-yl)phenyl]-5-oxo-2,3,8,8a-tetrahydro-1H-indolizin-3-yl]-1H-imidazol-5-yl]-3-fluoro-N-methoxy-pyridine-2-carboxamide] | 1.6 nM | 53.1 nM | –
[2H]c1cc(Cl)c(F)c(C2=CC(=O)N3[C@H](CC[C@H]3c3nc(-c4ccc(N)nc4F)c[nH]3)C2)c1-n1cnnn1 [Example 153, (3S,8aR)-3-[4-(6-amino-2-fluoro-3-pyridyl)-1H-imidazol-2-yl]-7-[3-chloro-5-deuterio-2-fluoro-6-(tetrazol-1-yl)phenyl]-2,3,8,8a-tetrahydro-1H-indolizin-5-one] | 0.5 nM | 8.1 nM | –
NC(=O)c1sc(-c2c[nH]c([C@@H]3CC[C@H]4CC(c5c(-n6cnnn6)ccc(Cl)c5F)=CC(=O)N43)n2)cc1F [Example 215, 5-(2-((3S,8aS)-7-(3-Chloro-2-fluoro-6-(1H-tetrazol-1-yl)phenyl)-5-oxo-1,2,3,5,8,8a-hexahydroindolizin-3-yl)-1H-imidazol-4-yl)-3-fluorothiophene-2-carboxamide] | > 100 nM | 117 nM | –
[2H]c1cc(-c2c[nH]c([C@@H]3CC[C@@H]4CC(c5c(F)c(Cl)cc([2H])c5-n5cnnn5)=CC(=O)N43)n2)c(F)nc1N [Example 125, (3S,8aR)-3-(4-(6-amino-2-fluoropyridin-3-yl-5-d)-1H-imidazol-2-yl)-7-(3-chloro-2-fluoro-6-(1H-tetrazol-1-yl)phenyl-5-d)-2,3,8,8a-tetrahydroindolizin-5(1H)-one] | 0.5 nM | 9.6 nM | –

The next lines start with the values.

IC50 (Factor XIa; [1]) | IC50 (human plasma kallikrein) | IC50 (Factor XIa; [2]) | Compound
0.3 nM | 0.7 nM | – | O=C1CCc2cc(-c3cnc([C@@H]4CCC5CC(c6c(-n7cnnn7)ccc(Cl)c6F)=CC(=O)N54)[nH]3)ccc2N1 (stereo partly drawn) [Example 311, 6-(2-((3S)-7-(3-Chloro-2-fluoro-6-(1H-tetrazol-1-yl)phenyl)-5-oxo-1,2,3,5,8,8a-hexahydroindolizin-3-yl)-1H-imidazol-5-yl)-3,4-dihydroquinolin-2(1H)-one]
3.6 nM | 26.8 nM | – | O=C1C=C(c2c(-n3cc(C(F)(F)F)nn3)ccc(Cl)c2F)C[C@H]2CC[C@@H](c3ncc(-c4c[nH]c5ccncc45)[nH]3)N12 [Example 385, (3S,8aR)-3-(5-(1H-pyrrolo[3,2-c]pyridin-3-yl)-1H-imidazol-2-yl)-7-(3-chloro-2-fluoro-6-(4-(trifluoromethyl)-1H-1,2,3-triazol-1-yl)phenyl)-2,3,8,8a-tetrahydroindolizin-5(1H)-one]
– | 8.4 nM | 1 nM | CC1(C)C[C@@H](c2ncc(-c3ccc(N)nc3Cl)[nH]2)N2C(=O)C=C(c3c(-n4cnnn4)ccc(Cl)c3F)C[C@H]21 (relative stereo) [Example 338, (3S,8aS)-3-(5-(6-Amino-2-chloropyridin-3-yl)-1H-imidazol-2-yl)-7-(3-chloro-2-fluoro-6-(1H-tetrazol-1-yl)phenyl)-1,1-dimethyl-2,3,8,8a-tetrahydroindolizin-5(1H)-one]
0.3 nM | 1.9 nM | – | COC(=O)Nc1ccc(-c2cnc([C@@H]3CC[C@H]4CC(c5c(-n6cnnn6)ccc(Cl)c5F)=CC(=O)N43)[nH]2)cc1 [Example 340, Methyl (4-(2-((3S,8aS)-7-(3-chloro-2-fluoro-6-(1H-tetrazol-1-yl)phenyl)-5-oxo-1,2,3,5,8,8a-hexahydroindolizin-3-yl)-1H-imidazol-5-yl)phenyl)carbamate]
– | 3.8 nM | 23.5 nM | COC(=O)Nc1ccc(-c2cnc([C@@H]3CC[C@H]4CC(c5c(OC(F)F)ccc(Cl)c5F)=CC(=O)N43)[nH]2)cc1 (relative stereo) [Example 320, Methyl (4-(2-((3S,8aS)-7-(3-Chloro-6-(difluoromethoxy)-2-fluorophenyl)-5-oxo-1,2,3,5,8,8a-hexahydroindolizin-3-yl)-1H-imidazol-5-yl)phenyl)carbamate]
> 100 nM | 793 nM | – | CNc1ncccc1-c1cnc([C@@H]2CC[C@H]3CC(c4c(-n5cnnn5)ccc(Cl)c4F)=CC(=O)N32)[nH]1 [Example 269, (3S,8aS)-7-[3-Chloro-2-fluoro-6-(tetrazol-1-yl)phenyl]-3-[5-[2-(methylamino)-3-pyridyl]-1H-imidazol-2-yl]-2,3,8,8a-tetrahydro-1H-indolizin-5-one]
0.9 nM | 1.1 nM | – | COc1ccc(-c2c[nH]c([C@@H]3CC[C@@H]4CC(c5c(-n6cnnn6)ccc(Cl)c5F)=CC(=O)N43)n2)c(NC(=O)C2CC2)c1 [Example 266, N-(2-(2-((3S,8aR)-7-(3-Chloro-2-fluoro-6-(1H-tetrazol-1-yl)phenyl)-5-oxo-1,2,3,5,8,8a-hexahydroindolizin-3-yl)-1H-imidazol-4-yl)-5-methoxyphenyl)cyclopropanecarboxamide]

From patent US20230295157A1, “3-(1H-IMIDAZOL-2-YL)-2,3,8,8A-TETRAHYDROINDOLIZIN-5(1H)-ONE DERIVATIVES USEFUL AS FACTOR XIA INHIBITORS” (JANSSEN PHARMACEUTICA NV, priority 2020, published 2023)
